In patent US20260207632A1, “C[…] THERAPY” (KINGDOM THERAPEUTICS LIMITED, priority 2022, published 2026):

How the values were obtained:
[1] = system: colonic myeloperoxidase (MPO) activity; assay: Colon myeloperoxidase (MPO) activity (P34) in distal colon, VPA rat model; assay type: in vivo; design: key to MPO activity: +: improvement; Ø: no change
Protocol: (§1) In the first study, a sub-chronic 8-day dosing schedule was employed with the test compound CBD administered alone (10, 30 and 60 mg/kg, p.o. VPA/CBD; dose volume 5 ml/kg). Control animals were administered sterile saline (0.9% w/v, i.p.) in utero and the vehicle control (ethanol: Kolliphor HS-15:0.9% saline (1:1:18, v/v/v) p.o. VEH/VEH). The test compound and vehicle control were administered to the animals once daily for 7 days prior to, and once again on each day of behavioural assessment, 60 minutes prior to test which consisted of a battery of behavioural paradigms: P30 social play and bottle brush test, P31-32 open field exploratory behaviour. A reference positive control, the atypical antipsychotic risperidone (0.125 mg/kg, i.p., once per day for 8 days prior to and for duration of behavioural testing), was included in study one for comparison. Subsequent to behavioural analysis the effect of CBD on gastrointestinal permeability was evaluated four hours following oral administration of fluorescein isothiocyanate-labelled dextran measured in plasma on postnatal day 33. On postnatal day 34, 60 minutes post a final treatment with the test agents, animals were humanely euthanised and samples collected to evaluate inflammatory biomarkers, gastrointestinal function and histology. 5 In the second study, the sub-optimal dose of CBD (30 mg/kg, p.o.) was evaluated in combination with administration of THC at increasing concentration (0.75, 1.5 and 3 mg/kg, p.o. VPA/CBD+THC). Comparison was made to CBD administered alone at the sub-optimal and effective doses (30 and 60 mg/kg, p.o.) and to vehicle controls as per study one. Behavioural and gastrointestinal readouts were examined as per study one with terminal samples collected on the final day of the experiment.
Five animals were chosen at random from each of the agreed treatment groups. Colon tissue was collected after euthanasia, weighted, flushed using cold sterile saline, and divided into three sections. One distal sample (approx. 1 cm×1 cm) was employed for intestinal myeloperoxidase (MPO) activity as described below by Berand Ltd. This sample was weighed and stored at −80° C. until use. A second proximal colon sample (approx. 1 cm×5 cm) was prepared for histological analysis by collection using the Swiss roll technique, placed into a cassette for paraffin embedding and preservation in 10% formalin solution for 24 hours. They were then transferred into 70% ethanol solution until paraffin embedded. These samples were shipped in 70% ethanol solution to Transpharmation Ltd at trinity College Dublin, Ireland for further processing. Haematoxylin & eosin staining was performed on the tissue before imaging. Five images were taken from each animal at 1.25× magnification. Using ImageJ the thickness of the muscle layer was measured at 5 locations throughout the section. A third medial section of colon (approx. 1 cm×2.5 cm) was frozen in liquid nitrogen for the analysis of cytokine expression and was shipped at minus 80° C. to Transpharmation Ltd at Trinity College Dublin, Ireland.
Analysis of colonic myeloperoxidase (MPO) activity employed a colorimetric activity assay kit (MAK068, Sigma-Aldrich, Ireland). Samples were analysed according to the manufacturer's instructions. Briefly, weighted distal colon tissues from all the groups were rapidly homogenized with 4 volumes of MPO Assay buffer and then centrifuged (13000 g×10 min, 4° C.) to obtain the supernatant. A 50 μl aliquot of each was added to a flat bottomed 96 well plate and brought to a final volume of 100 μl with MPO assay buffer. The MPO activity in milliunits/mL was determined using a 5,5′-dithiobis-(2-nitrobenzoic acid) (DTNB) probe to produce a TNB chromophore in a standard curve (0-50 nmol/mL). Standards and blank were prepared according to manufacturer's instruction. Absorbance was read at 412 nm at 60 minutes and expressed per mg of tissue sample. […]

rat VPA model of autism = assay: Irritability-like behaviour: bottle-brush test (P30) in VPA rat model; assay type: in vivo; design: key to bottle brush irritability: +: improvement; Ø: no change
Protocol: as §1
To test irritability-like behaviour we employed the bottle-brush test modified for rats (Riittinen et al. 1986). Irritability-like behaviour was examined by measuring aggressive and defensive responses during the bottle-brush test carried out in juvenile animals immediately after play behaviour evaluation at P30. Irritability-like behaviour testing was performed under dark conditions with a red light and infrared camera recording (Kononoff et al., 2018). Testing consisted of 10 trials per rat in plastic cages (377×325×170 mm) with fresh bedding. During each trial, the rat was placed at the back of the cage. A bottle-brush was rotated toward the animal's whiskers (from the front of the cage). The brush was rotated around the whiskers of the rat for approximately 1 second. The brush was then rotated back to the front of the cage where it hung vertically for approximately 2 seconds, during which behavioural responses were recorded. An intertrial interval of 10 seconds was used, with each new trial started with the animal returned to the back of the cage. All testing was conducted in the morning, starting at 09.00 and concluded before 12.00.
Employing video analysis of the test the following were scored as aggressive responses: smelling the brush, biting the brush (during the initial phase of rotating the brush forward and back to the starting position), boxing the target, following the brush, exploring the brush (using paws or mouth to manipulate the brush without biting or boxing), mounting the brush, and delayed biting (during the 2 s that the brush hung at the starting position). The following were scored as defensive responses: escaping from the brush, digging, burying, jumping, climbing, vocalization, freezing, and grooming. Grooming and digging were additionally recorded during the 10 second intertrial intervals. Frequency and total time engaged in each behaviour and the sum of aggressive and defensive behaviours, referred to as the irritability score (Kononoff et al, 2018), were recorded.

[2] = cohort two, CBD 30 mg/kg, THC 0 mg/kg p.o.
[3] = cohort two, CBD 60 mg/kg, THC 0 mg/kg p.o.
[4] = study one, CBD 60 mg/kg, vs VPA/VEH
[5] = study one, CBD 10 mg/kg, vs VPA/VEH
[6] = cohort one, risperidone 0.125 mg/kg i.p.
[7] = study one, risperidone 0.125 mg/kg i.p.

C=C(C)[C@@H]1CCC(C)=C[C@H]1c1c(O)cc(CCCCC)cc1O [CBD, cannabidiol]
MPO activity ([1]; cohort one, CBD 10 mg/kg p.o.): Ø | MPO activity ([1]; cohort one, CBD 30 mg/kg p.o.): Ø | MPO activity ([1]; cohort one, CBD 60 mg/kg p.o.): + | MPO activity [1, 2]: Ø | MPO activity [1, 3]: + | increase in colonic MPO activity [1, 4]: significantly prevented | increase in colonic MPO activity ([1]; study two, CBD 30 mg/kg): without significant effect | increase in colonic MPO activity ([1]; study two, CBD 60 mg/kg): significantly prevented | bottle brush irritability (rat VPA model of autism; cohort one, CBD 10 mg/kg p.o.): Ø | bottle brush irritability (rat VPA model of autism; cohort one, CBD 30 mg/kg p.o.): + | bottle brush irritability (rat VPA model of autism; cohort one, CBD 60 mg/kg p.o.): + | bottle brush irritability (rat VPA model of autism; [2]): Ø | bottle brush irritability (rat VPA model of autism; [3]): + | increase in aggressive responses, bottle brush (rat VPA model of autism; [5]): significantly reduced | irritability score (combined aggressive and defensive behaviours) (rat VPA model of autism; [5]): significantly reduced | irritability score (combined aggressive and defensive behaviours) (rat VPA model of autism; study one, CBD 30 mg/kg, vs VPA/VEH): significantly reduced | increase in aggressive responses, bottle brush (rat VPA model of autism; [4]): significantly reduced | irritability score (combined aggressive and defensive behaviours) (rat VPA model of autism; [4]): significantly reduced | increase in aggressive responses, bottle brush (rat VPA model of autism; study two, CBD 30 mg/kg): without effect | irritability score (combined aggressive and defensive behaviours) (rat VPA model of autism; study two, CBD 30 mg/kg): without effect | increase in aggressive responses, bottle brush (rat VPA model of autism; study two, CBD 60 mg/kg): significantly reduced | irritability score (combined aggressive and defensive behaviours) (rat VPA model of autism; study two, CBD 60 mg/kg): significantly reduced

Cc1nc2n(c(=O)c1CCN1CCC(c3noc4cc(F)ccc34)CC1)CCCC2 [Risperidone, risperidone]
MPO activity [1, 6]: Ø | increase in colonic MPO activity [1, 7]: without effect | bottle brush irritability (rat VPA model of autism; [6]): + | increase in aggressive responses, bottle brush (rat VPA model of autism; [7]): significantly reduced | irritability score (combined aggressive and defensive behaviours) (rat VPA model of autism; [7]): significantly reduced
